Literature values as cited in patent US11498743B2, “Cardboard container for active packaging of fresh fruit and vegetables and production method of same” (Universidad Politecnica de Cartagena, priority 2016, dated 2022).

In order of falling “Half-life in 1M HCl at 60° C.” value:
1. OC[C@H]1O[C@@H]2O[C@H]3[C@H](O)[C@@H](O)[C@@H](O[C@H]4[C@H](O)[C@@H](O)[C@@H](O[C@H]5[C@H](O)[C@@H](O)[C@@H](O[C@H]6[C@H](O)[C@@H](O)[C@@H](O[C@H]7[C@H](O)[C@@H](O)[C@@H](O[C@H]1[C@H](O)[C@H]2O)O[C@@H]7CO)O[C@@H]6CO)O[C@@H]5CO)O[C@@H]4CO)O[C@@H]3CO [α-CD, alpha-cyclodextrin]  6.2 h
2. OC[C@H]1O[C@@H]2O[C@H]3[C@H](O)[C@@H](O)[C@@H](O[C@H]4[C@H](O)[C@@H](O)[C@@H](O[C@H]5[C@H](O)[C@@H](O)[C@@H](O[C@H]6[C@H](O)[C@@H](O)[C@@H](O[C@H]7[C@H](O)[C@@H](O)[C@@H](O[C@H]8[C@H](O)[C@@H](O)[C@@H](O[C@H]1[C@H](O)[C@H]2O)O[C@@H]8CO)O[C@@H]7CO)O[C@@H]6CO)O[C@@H]5CO)O[C@@H]4CO)O[C@@H]3CO [β-CD, beta-cyclodextrin]  5.4 h
3. OC[C@H]1O[C@@H]2O[C@H]3[C@H](O)[C@@H](O)[C@@H](O[C@H]4[C@H](O)[C@@H](O)[C@@H](O[C@H]5[C@H](O)[C@@H](O)[C@@H](O[C@H]6[C@H](O)[C@@H](O)[C@@H](O[C@H]7[C@H](O)[C@@H](O)[C@@H](O[C@H]8[C@H](O)[C@@H](O)[C@@H](O[C@H]9[C@H](O)[C@@H](O)[C@@H](O[C@H]1[C@H](O)[C@H]2O)O[C@@H]9CO)O[C@@H]8CO)O[C@@H]7CO)O[C@@H]6CO)O[C@@H]5CO)O[C@@H]4CO)O[C@@H]3CO [γ-CD, gamma-cyclodextrin]  3.0 h
